According to US9682013B2, “Pharmaceutical compositions comprising human antibodies to PCSK9” (SANOFI BIOTECHNOLOGY, priority 2011, dated 2017):

How the values were obtained:
male Syrian hamster = assay: Study 4: cholesterol lowering effect of 316P alone and with atorvastatin in hamster; format: in vivo
Excerpt: This is an animal study on the cholesterol lowering effect of 316P, a fully human PCSK9 blocking monoclonal antibody in male Syrian hamster
The aim of this study was to investigate the effect of 316P, a human monoclonal antibody to human PCSK9, alone and in combination with statins on expression of the hepatic LDLR and the resulting effects on serum LDL-C.
The maximal effect on LDL-C (−17/−27/−60%) was seen within 7 days. PK data of 316P are in line with the dose-dependent effect on LDL-C.

[1] = test system: patients with an elevated low-density lipoprotein cholesterol (LDL-C) (≧100 mg/dL or 2.59 mmol/L); assay: Study 1: randomized, double-blind, placebo-controlled 12-week study of antibody 316P on stable atorvastatin; format: in vivo, human; details: for Cholesterol, Week 12 % change from baseline, Mean / Cholesterol, Week 12 % change from baseline, Median / Cholesterol, Week 12, Mean / Cholesterol, Week 12, Median / Cholesterol, Week 12 change from baseline, Mean / Cholesterol, Week 12 change from baseline, Median / LDL Cholesterol, Week 12—% change from baseline, Mean / LDL Cholesterol, Week 12—% change from baseline, Median / Non-HDL Cholesterol, Week 12 % change from baseline, Mean / Non-HDL Cholesterol, Week 12 % change from baseline, Median / LS mean difference vs. placebo in percent change from baseline in LDL-C at 12 weeks: on stable atorvastatin
Procedure: This was a multicenter, randomized, double-blind, parallel-group, placebo-controlled, 12-week study to assess the efficacy and safety of antibody 316P in patients with an elevated low-density lipoprotein cholesterol (LDL-C) (≧100 mg/dL or 2.59 mmol/L), when treated with atorvastatin (10 mg, 20 mg, or 40 mg) at a stable dose for at least 6 weeks. The randomization was stratified by the dose of atorvastatin received prior to randomization. After the double-blind period patients were followed during an 8-week follow-up period. The primary objective of the study was to evaluate the effect of antibody 316P on LDL-C levels after 12 weeks of treatment in comparison with placebo in patients with LDL-C (≧100 mg/dL or 2.59 mmol/L) on ongoing stable atorvastatin therapy.
The following doses/dose regimens were evaluated: 50 mg, 100 mg and 150 mg every 2 weeks (E2W), 200 mg and 300 mg every 4 weeks (E4W) in comparison with placebo.
Present study comprised a total of 122 patients (20 in placebo, 19 in 50 mg E2W group, 20 in 100 mg E2W group, 20 in 150 mg E2W group, 22 in 200 mg E4W group, and 21 in 300 mg E4W group).
Inclusion criteria: • Patients (patients receiving a lipid lowering treatment other than atorvastatin/or not at stable dose of atorvastatin 10 mg, 20 mg or 40 mg for at least 6 weeks prior to screening period or drug naïve patients) with primary hypercholesterolemia likely to have low-density lipoprotein cholesterol (LDL-C)≧100 mg/dL (≧2.59 mmol/L) at the end of the run-in period on atorvastatin therapy (Week-1). • OR • Patients with primary hypercholesterolemia treated with atorvastatin at stable dose of 10 mg, 20 mg, or 40 mg for at least 6 weeks prior to screening period and likely to have LDL-C≧100 mg/dL (≧2.59 mmol/L) at the screening visit Week-1. […]

hPCSK9 = hPCSK9 (Homo sapiens, UniProt Q8NBP7); details: unmutated hPCSK9; cited from earlier work
Chain of hPCSK9 (Q8NBP7 153-692): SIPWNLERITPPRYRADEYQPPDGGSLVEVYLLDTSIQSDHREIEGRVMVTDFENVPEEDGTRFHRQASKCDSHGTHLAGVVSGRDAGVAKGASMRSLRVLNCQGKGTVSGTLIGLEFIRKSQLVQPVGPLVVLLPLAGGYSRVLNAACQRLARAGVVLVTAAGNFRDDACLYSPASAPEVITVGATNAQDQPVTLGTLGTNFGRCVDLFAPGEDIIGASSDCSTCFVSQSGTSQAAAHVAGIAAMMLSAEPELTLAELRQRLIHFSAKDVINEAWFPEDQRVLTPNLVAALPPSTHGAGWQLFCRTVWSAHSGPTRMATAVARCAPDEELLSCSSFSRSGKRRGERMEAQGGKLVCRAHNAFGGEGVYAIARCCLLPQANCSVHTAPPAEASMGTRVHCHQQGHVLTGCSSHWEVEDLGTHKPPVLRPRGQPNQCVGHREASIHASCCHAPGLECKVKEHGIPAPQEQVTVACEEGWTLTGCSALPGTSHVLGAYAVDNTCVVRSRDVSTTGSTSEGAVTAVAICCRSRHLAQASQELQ

hPCSK9 D238 mutated = hPCSK9 D238 mutated (Homo sapiens, UniProt Q8NBP7, D238R); details: cited from earlier work
Chain of hPCSK9 D238 mutated (Q8NBP7 153-692 D238R): as the sequence (Q8NBP7 153-692) above, with D86R counted along it

[2] = test system: patients with heterozygous familial hypercholesterolemia (heFH); assay: Study 6: randomized, placebo-controlled 12-week trial in heFH on statin with or without ezetimibe (interim analysis); format: in vivo, human; details: every two or four weeks
Procedure: A randomized, double-blind, multi-dose, placebo controlled, 75-patient trial in patients with heterozygous familial hypercholesterolemia (heFH). In this trial, patients must meet the World Health Organization criteria for heFH, be on a stable daly statin regimen for at least 6-weeks before entering the trial, and have serum LDL-C levels ≧100 mg/dL. Patients were permitted to be taking ezetimibe in addition to a daily statin. The primary endpoint of the study is the change in LDL cholesterol from baseline compared to placebo over the 12-week study period.
Patients treated with different doses of 316P achieved mean LDL-C reductions of approximately 30% to greater than 60% from baseline at 12-weeks compared to a 10% reduction with placebo (p<0.01), which was the primary endpoint of the study. The interim analysis was conducted when all patients completed the primary endpoint at 12-weeks.

[3] = single s.c. injection 1/3/10 mg/kg
[4] = 12 weeks, all doses/dose regimens

In the case of “316P: fully human anti-PCSK9 antibody comprising a HCVR as shown in SEQ ID NO: 90 and LCVR as shown in SEQ ID NO: 92 [Antibody 316P]”, the LDLR expression (male Syrian hamster; 316P on top of Atorvastatin) is reported as “increased LDLR expression”, the “serum LDL-C” value (male Syrian hamster; 316P on top of Atorvastatin) is reported as “decreased serum LDL-C” and the statin resistance (male Syrian hamster; 316P on top of Atorvastatin) is reported as “could overcome the statin resistance”. For the same substance, the “combination treatment compared with single treatment” value (male Syrian hamster; 316P plus Atorvastatin) was “more effective than single treatment with 316P alone”, the “maximal effect on LDL-C” value (male Syrian hamster; single s.c. injection 1 mg/kg) was −17% and the “maximal effect on LDL-C” value (male Syrian hamster; single s.c. injection 3 mg/kg) was −27%. The “maximal effect on LDL-C” value (male Syrian hamster; single s.c. injection 10 mg/kg) was −60%, the “duration of dose-dependent decrease in LDL-C” value (male Syrian hamster; [3]) was “more than 2 weeks” and the “time to maximal effect on LDL-C” value (male Syrian hamster; [3]) was no more than 7 days. The “Cholesterol, Week 12 % change from baseline, Mean” value ([1]; 50 mg E2W) was −24.21%, the “Cholesterol, Week 12 % change from baseline, Median” value ([1]; 50 mg E2W) was −23.34% and the “Cholesterol, Week 12, Mean” value ([1]; 50 mg E2W) was 3.974 mmol/L. For the same substance, the “Cholesterol, Week 12, Median” value ([1]; 50 mg E2W) was 3.937 mmol/L, the “Cholesterol, Week 12 change from baseline, Mean” value ([1]; 50 mg E2W) was -1.313 mmol/L and the “Cholesterol, Week 12 change from baseline, Median” value ([1]; 50 mg E2W) was -1.399 mmol/L. The “LDL Cholesterol, Week 12—% change from baseline, Mean” value ([1]; 50 mg E2W) was −41.06%, the “LDL Cholesterol, Week 12—% change from baseline, Median” value ([1]; 50 mg E2W) was −37.04% and the “Non-HDL Cholesterol, Week 12 % change from baseline, Mean” value ([1]; 50 mg E2W) was −35.23%. For the same substance, the “Non-HDL Cholesterol, Week 12 % change from baseline, Median” value ([1]; 50 mg E2W) was −36.62%, the “maintenance of LDL-C decrease observed after the first injection” value ([1]; 100 mg E2W and 150 mg E2W groups, also throughout the interval period between the injections) was “maintained throughout the study” and the “Cholesterol, Week 12 % change from baseline, Mean” value ([1]; 100 mg E2W) was −38.97%. The “Cholesterol, Week 12 % change from baseline, Median” value ([1]; 100 mg E2W) was −40.21%, the “Cholesterol, Week 12, Mean” value ([1]; 100 mg E2W) was 3.288 mmol/L and the “Cholesterol, Week 12, Median” value ([1]; 100 mg E2W) was 3.238 mmol/L. The “Cholesterol, Week 12 change from baseline, Mean” value ([1]; 100 mg E2W) was -2.098 mmol/L, the “Cholesterol, Week 12 change from baseline, Median” value ([1]; 100 mg E2W) was -2.163 mmol/L and the “LDL Cholesterol, Week 12—% change from baseline, Mean” value ([1]; 100 mg E2W) was −63.90%. The “LDL Cholesterol, Week 12—% change from baseline, Median” value ([1]; 100 mg E2W) was −64.28%, the “LS mean difference vs. placebo in percent change from baseline in LDL-C at 12 weeks” value ([1]; 100 mg E2W) was −58.36% and the “Non-HDL Cholesterol, Week 12 % change from baseline, Mean” value ([1]; 100 mg E2W) was −54.78%. The “Non-HDL Cholesterol, Week 12 % change from baseline, Median” value ([1]; 100 mg E2W) was −55.91%, the “number of patients with LDL-C reduction from baseline >50% at week 12” value ([1]; 150 mg E2W group, among 18 patients) was 17 and the “Cholesterol, Week 12 % change from baseline, Mean” value ([1]; 150 mg E2W) was −45.21%. For the same substance, the “Cholesterol, Week 12 % change from baseline, Median” value ([1]; 150 mg E2W) was −45.03%, the “Cholesterol, Week 12, Mean” value ([1]; 150 mg E2W) was 2.922 mmol/L and the “Cholesterol, Week 12, Median” value ([1]; 150 mg E2W) was 2.823 mmol/L. For the same substance, the “Cholesterol, Week 12 change from baseline, Mean” value ([1]; 150 mg E2W) was -2.466 mmol/L, the “Cholesterol, Week 12 change from baseline, Median” value ([1]; 150 mg E2W) was -2.331 mmol/L and the “LDL Cholesterol, Week 12—% change from baseline, Mean” value ([1]; 150 mg E2W) was −72.68%. For the same substance, the “LDL Cholesterol, Week 12—% change from baseline, Median” value ([1]; 150 mg E2W) was −74.83%, the “LS mean difference vs. placebo in percent change from baseline in LDL-C at 12 weeks” value ([1]; 150 mg E2W) was −68.78% and the “Non-HDL Cholesterol, Week 12 % change from baseline, Mean” value ([1]; 150 mg E2W) was −63.71%. For the same substance, the “Non-HDL Cholesterol, Week 12 % change from baseline, Median” value ([1]; 150 mg E2W) was −65.94%, the “Cholesterol, Week 12 % change from baseline, Mean” value ([1]; 200 mg E4W) was −29.54% and the “Cholesterol, Week 12 % change from baseline, Median” value ([1]; 200 mg E4W) was −29.51%. The “Cholesterol, Week 12, Mean” value ([1]; 200 mg E4W) was 3.709 mmol/L, the “Cholesterol, Week 12, Median” value ([1]; 200 mg E4W) was 3.587 mmol/L and the “Cholesterol, Week 12 change from baseline, Mean” value ([1]; 200 mg E4W) was -1.596 mmol/L. For the same substance, the “Cholesterol, Week 12 change from baseline, Median” value ([1]; 200 mg E4W) was -1.716 mmol/L, the “LDL Cholesterol, Week 12—% change from baseline, Mean” value ([1]; 200 mg E4W) was −47.23% and the “LDL Cholesterol, Week 12—% change from baseline, Median” value ([1]; 200 mg E4W) was −49.46%. The “LS mean difference vs. placebo in percent change from baseline in LDL-C at 12 weeks” value ([1]; 200 mg E4W) was −42.53%, the “Non-HDL Cholesterol, Week 12 % change from baseline, Mean” value ([1]; 200 mg E4W) was −40.07% and the “Non-HDL Cholesterol, Week 12 % change from baseline, Median” value ([1]; 200 mg E4W) was −39.91%. The “decrease in LDL-C during the interval periods” value ([1]; 200 mg and 300 mg E4W groups) was “at least −40%”, the “Cholesterol, Week 12 % change from baseline, Mean” value ([1]; 300 mg E4W) was −29.61% and the “Cholesterol, Week 12 % change from baseline, Median” value ([1]; 300 mg E4W) was −33.48%. For the same substance, the “Cholesterol, Week 12, Mean” value ([1]; 300 mg E4W) was 3.778 mmol/L, the “Cholesterol, Week 12, Median” value ([1]; 300 mg E4W) was 3.393 mmol/L and the “Cholesterol, Week 12 change from baseline, Mean” value ([1]; 300 mg E4W) was -1.638 mmol/L. The “Cholesterol, Week 12 change from baseline, Median” value ([1]; 300 mg E4W) was -2.020 mmol/L, the “LDL Cholesterol, Week 12—% change from baseline, Median” value ([1]; 300 mg E4W) was −51.98% and the “LS mean difference vs. placebo in percent change from baseline in LDL-C at 12 weeks” value ([1]; 300 mg E4W) was −42.26%. The “Non-HDL Cholesterol, Week 12 % change from baseline, Mean” value ([1]; 300 mg E4W) was −41.17%, the “Non-HDL Cholesterol, Week 12 % change from baseline, Median” value ([1]; 300 mg E4W) was −45.55% and the tolerability ([1]; 12 weeks of treatment, all tested doses/dose regimens) was “well tolerated”. For the same substance, the “ApoB” value [1, 4] was “decrease”, the “Total-C” value [1, 4] was “decrease” and the “non HDL-C” value [1, 4] was “decrease”. For the same substance, the “HDL-C” value ([1]; 12 weeks, all groups) was “trend of increase”, the “percent change from baseline in LDL-C at 12 weeks compared to the placebo group” value ([1]; all groups) was “Statistically significant decreases” and the troponin levels ([1]; all treatment groups) was “no change”. For the same substance, the “LDL-C mean values over 12 weeks and LOCF (FIG. 6, words)” value ([1]; all treatment groups except placebo, whole study period) was “significant and persistent reduction of LDL-C levels”, the Kd (hPCSK9) was roughly 1 nM and the T1/2 decrease (hPCSK9 D238 mutated; D238 mutated vs unmutated) was greater than 30 fold. For the same substance, the “reduction in binding affinity” value (hPCSK9 D238 mutated; D238 mutated vs unmutated) was greater than 400 fold, the Kd (hPCSK9 D238 mutated; D238 mutated) was roughly 410 nM and the “mean LDL-C reductions at 12-weeks compared to placebo” value [2] was “significantly greater mean LDL-C reductions”.
